Test results: patent publication US9382222B2, “Benzyl sulfonamide derivatives as RORc modulators” (Genentech, Inc., priority 2012, dated 2016)

target: T1, RORc ligand binding domain (Homo sapiens, UniProt P51449); experiment: In Vitro RORc Ligand Binding Assay; details: displacement of 25-[3H]hydroxycholesterol (6 nM), 0.6 ug/mL RORc receptor, 3 h at 25° C.
T1 construct: host or cells: E. coli
T1 sequence (P51449 269-508 limits assumed): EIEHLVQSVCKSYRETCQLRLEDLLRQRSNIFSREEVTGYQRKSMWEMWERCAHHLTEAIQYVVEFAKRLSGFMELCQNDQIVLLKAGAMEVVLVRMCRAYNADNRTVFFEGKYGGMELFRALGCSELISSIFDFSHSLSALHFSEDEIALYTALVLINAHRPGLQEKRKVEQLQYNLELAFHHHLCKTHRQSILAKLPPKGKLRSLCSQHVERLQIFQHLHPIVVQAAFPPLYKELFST
Method: In Vitro RORc Ligand Binding Assay This assay was used to determine a compound's potency in inhibiting activity of RORc by determining, Kiapp, IC50, or percent inhibition values. […] On day of the assay, 100 uL of 0.05% CHAPS (in deionized H2O) was added to all wells of the GFB Unifilter plate and allowed soak for 1 h. A wash buffer of 50 mM HEPES (pH 7.4), 150 mM NaCl, and 5 mM MgCl2 was prepared to wash the filter plate. To prepare an assay buffer, BSA was added to the wash buffer to reach 0.01% and DTT was added to reach 1 mM. […] The 20× compound stocks were diluted in DMSO with Assay Buffer 4-fold to reach 5× the final test concentration in 25% DMSO (10 uL compound+30 uL Assay Buffer). Solutions were mixed by aspiration several times with a pipette set on 50 uL volume. For the assay, 10 uL of 5× compound stock solutions in 25% DMSO were added to the assay plate in duplicate. For two point screening, 10 mM stock compound solutions were diluted in DMSO to obtain 200 uM (20× the high test concentration) and then diluted 10-fold further to reach 20 uM (20× the low test concentration). The 20× stocks were diluted 4-fold with Assay Buffer (10 uL compound+30 uL Assay Buffer) to reach 5× the test concentrations (50 uM and 5 uM) and 10 uL were added to two assay plates for the duplicate wells. […] Add 20 uL to all wells to reach 6 nM final concentration in the assay. […] Stock receptor solution was diluted in assay buffer to obtain 1.5 ug/mL in Assay Buffer. 20 uL was added to all wells. For No Receptor samples, 20 uL Assay Buffer was substituted for receptor solution. […] Following addition to the wells, the plates were incubated 3 h at 25° C. Using a Packard Filtermate Harvester, the filter plate were washed 4 times following transfer of the incubated samples. Plates were dry-filtered completely (2 h at 50° C. or overnight at room temperature). 50 uL Microscint 0 was added to all wells and read on Topcount protocol Inverted. […] For NSB wells, 1 uM 25-hydroxycholesterol was also present.

Compound	IC50 [nM]
CC(C)CN(c1cccc(Cl)c1)S(=O)(=O)c1ccc(NC2CCN(C(N)=O)CC2)cc1 [Compound 36, 4-{4-[(3-Chloro-phenyl)-isobutyl-sulfamoyl]-phenylamino}-piperidine-1-carboxylic acid amide]	66
CC(C)CN(c1cccc(Cl)c1)S(=O)(=O)c1ccc(N2CCN(S(=O)(=O)N(C)C)CC2)cc1 [Compound 19, 4-{4-[(3-Chloro-phenyl)-isobutyl-sulfamoyl]-phenyl}-piperazine-1-sulfonic acid dimethylamide]	62
CC(=O)N1CCN(c2ccc(S(=O)(=O)N(Cc3ccc(Cl)cc3)CC(C)C)cc2)CC1 [Compound 67, 4-(4-Acetyl-piperazin-1-yl)-N-(4-chloro-benzyl)-N-isobutyl-benzenesulfonamide]	87
CC(C)CN(c1ccccc1Cl)S(=O)(=O)c1ccc(N2CCN(S(C)(=O)=O)CC2)cc1 [Compound 22, N-(2-Chloro-phenyl)-N-isobutyl-4-(4-methanesulfonyl-piperazin-1-yl)-benzenesulfonamide]	87
CC(C)CN(c1ccccc1C(F)(F)F)S(=O)(=O)c1ccc(NC2CCN(S(C)(=O)=O)CC2)cc1 [Compound 46, N-Isobutyl-4-(1-methanesulfonyl-piperidin-4-ylamino)-N-(2-trifluoromethyl-phenyl)-benzenesulfonamide]	33
CC(C)CN(c1cccc(F)c1F)S(=O)(=O)c1ccc(OC2CCN(S(C)(=O)=O)CC2)cc1 [Compound 49, N-(2,3-Difluoro-phenyl)-N-isobutyl-4-(1-methanesulfonyl-piperidin-4-yloxy)-benzenesulfonamide]	8
CC(C)CN(Cc1ccccc1C(F)(F)F)S(=O)(=O)c1ccc(N2CCC(C(N)=O)CC2)cc1 [Compound 83, 1-{4-[Isobutyl-(2-trifluoromethyl-benzyl)-sulfamoyl]-phenyl}-piperidine-4-carboxylic acid amide]	24
CC(C)CN(c1cccc(Cl)c1)S(=O)(=O)c1ccc(N2CCC(NS(C)(=O)=O)CC2)cc1 [Compound 23, N-(3-Chloro-phenyl)-N-isobutyl-4-(4-methanesulfonylamino-piperidin-1-yl)-benzenesulfonamide]	169
CC(C)CN([C@@H](CO)c1ccccc1)S(=O)(=O)c1ccc(N2CCN(S(C)(=O)=O)CC2)cc1 [Compound 92, N-((R)-2-Hydroxy-1-phenyl-ethyl)-N-isobutyl-4-(4-methanesulfonyl-piperazin-1-yl)-benzenesulfonamide]	3100
CC(C)CN(c1ccc(F)cc1)S(=O)(=O)c1ccc(C(=O)NC2CCN(S(C)(=O)=O)CC2)cc1 [Compound 12, 4-[(4-Fluoro-phenyl)-isobutyl-sulfamoyl]-N-(1-methanesulfonyl-piperidin-4-yl)-benzamide]	6100
CS(=O)(=O)N1CCC(Oc2ccc(S(=O)(=O)N(Cc3ccccc3C(F)(F)F)C3CCC3)cc2)CC1 [Compound 89, N-Cyclobutyl-4-(1-methanesulfonyl-piperidin-4-yloxy)-N-(2-trifluoromethyl-benzyl)-benzenesulfonamide]	9
CC(C)CN(c1ccccc1Cl)S(=O)(=O)c1cccc(N2CCN(S(C)(=O)=O)CC2)c1 [Compound 25, N-(2-Chloro-phenyl)-N-isobutyl-3-(4-methanesulfonyl-piperazin-1-yl)-benzenesulfonamide]	528
CC(C)CN(Cc1ccccc1C(F)(F)F)S(=O)(=O)c1ccc(N2CCN(S(C)(=O)=O)CC2)cc1F [Compound 69, 2-Fluoro-N-isobutyl-4-(4-methanesulfonyl-piperazin-1-yl)-N-(2-trifluoromethyl-benzyl)-benzenesulfonamide]	20
